Results from PubChem BioAssay AID1198 (NMMLSC, 2008).
pEC50: −log10 of the molar value. Calls of active or inactive are those of the source.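 How the source made its calls: active means EC50 under 10 microM for raising side scatter, a sign of cell differentiation; inactive means the rest, including fits that never converged.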

What was measured:
[1] = system: LNCaP side scatter shift, flow cytometry, 4 days; test: LNCaP side scatter shift induction by compounds – cell-based, flow cytometry, side scatter granularity, dose response (AID 1198)
[2] = as above; details: LNCaP side scatter shift, flow cytometry, 4 days; at 30 µM (top of the series)

Structure (SMILES)	pEC50 [1]	side scatter activation [2]	EC50 [1]
CCN(CCNC(=O)C1CCN(Cc2nc(-c3ccc(Cl)cc3)oc2C)CC1)c1ccccc1	5.70	–	–
Cc1cc(N2CCN(C)CC2)nc2ccc(NC(=O)c3ccc(Br)o3)cc12	5.55	–	–
Cn1c(=O)cc(OCC(=O)NCCCN2CCN(c3ccccc3F)CC2)c2ccccc21	–	73% (inactive)	–
CCOC(=O)c1ccccc1NC(=O)Cn1c(-c2nonc2N)nc2ccccc21	–	44.4% (inactive)	–
O=C(CCN1C(=O)COc2ccccc21)NCCCN1CCN(c2ccc(F)cc2)CC1	–	40.2% (inactive)	–
COc1ccccc1N1CCN(Cc2cc(Br)c(O)c3ncccc23)CC1	–	1.98% (inactive)	–
Cc1ccccc1-c1nc(CN2CCC(C(=O)NCCCN3CCCC3)CC2)c(C)o1	–	1.98% (inactive)	–
COc1ccc(N2CCN(CCCNC(=O)CCCn3c(=O)[nH]c4ccsc4c3=O)CC2)cc1	–	1.98% (inactive)	–
Cc1ccc(OCC(O)Cn2c(=N)n(CCN3CCCCC3)c3ccccc32)cc1 (stereo not drawn)	5.39	–	–
CCOc1cccc2cc(-c3cn4cc(C)ccc4n3)c(=O)oc12	–	–	20.6 µM (inactive)
CCOc1ccc(-c2cc(C(=O)NCCCN3CCN(CC)CC3)c3ccccc3n2)cc1	5.19	–	–
COc1ccccc1N1CCN(c2nc3ccccc3nc2C(C#N)C(=O)OC(C)C)CC1 (stereo not drawn)	–	44.4% (inactive)	–
CN(CC(O)COc1ccc(OCC(O)CN(C)C2CCCCC2)cc1)C1CCCCC1 (stereo not drawn)	5.36	–	–
O=C(c1ccccc1)c1ccc(N2CCNCC2)cc1	–	73% (inactive)	–
COC(=O)c1cc(-c2ccccc2)sc1NC(=O)c1cc(C)on1	5.73	–	–
CCN(CC)CCCNC(=O)c1cc2c(-c3ccc(Cl)cc3)nn(C)c2s1	–	84.3% (inactive)	–
O=c1cc(-c2ccccc2)[nH]c2ccccc12	–	1.98% (inactive)	–
Cn1c(C(=O)NCCCN2CCN(c3cccc(Cl)c3)CC2)cc2c(=O)n(C)c3ccccc3c21	6.06	–	–
CC(C)N1CCC2(CC1)N=C(c1ccc3c(c1)OCO3)CC(c1cc(Cl)ccc1O)N2 (stereo not drawn)	–	1.98% (inactive)	–
Cc1ccc(Nc2cc(=O)n(C3CCCCC3)c(=O)[nH]2)cc1C	–	0% (inactive)	–
CCOc1ccccc1NC(=O)c1nc[nH]c1C(=O)Nc1ccccc1OCC	5.18	–	–
CCCc1cc(-c2n[nH]c(C)c2-c2ccc(C(=O)OCC)o2)c(O)cc1O	–	1.98% (inactive)	–
COc1ccc2cc3cc(C(=O)Nc4ccccc4N4CCN(C)CC4)oc3nc2c1	–	44.4% (inactive)	–
Cc1cccc(-c2nsc(SCC(=O)Nc3nccs3)n2)c1	–	–	12 µM (inactive)

Structure (SMILES)	pEC50 [1]	side scatter activation [2]	EC50 [1]
O=C(NCCCN1CCN(c2cccc(Cl)c2)CC1)c1cccc(N2CCCC2=O)c1	–	38.5% (inactive)	–
Cc1ccccc1-c1nc(CN2CCC(C(=O)NCCCN3CCOCC3)CC2)c(C)o1	5.17	–	–
N=c1n(CCN2CCCCC2)c2ccccc2n1CC(O)COc1ccccc1 (stereo not drawn)	6.00	–	–
Cc1oc(-c2ccc(Cl)cc2)nc1CN1CCC(C(=O)N2CCN(Cc3ccccc3)CC2)CC1	–	31.1% (inactive)	–
Cc1oc(-c2ccc(Cl)cc2)nc1CN1CCC(C(=O)NCCCN2CCOCC2)CC1	5.52	–	–
Cc1ccc2c(c1)-c1c(cnn1CC(=O)Nc1ccccc1N1CCN(C)CC1)CO2	5.09	–	–
O=C(NCCCN1CCN(c2ccc(F)cc2)CC1)c1cccc(N2CCCC2=O)c1	–	73% (inactive)	–
COc1ccc(CCN2CCC(Nc3nc4ccccc4n3Cc3ccc(F)cc3)CC2)cc1	–	40.2% (inactive)	–
Cc1cc(C)nc(N2CCC(C(=O)Nc3ccc(Oc4ccccc4)cc3)CC2)n1	–	40.2% (inactive)	–
Cc1ccccc1-c1nc(CN2CCC(C(=O)NCc3cccnc3)CC2)c(C)o1	–	38.5% (inactive)	–
Cc1ccc(Cl)cc1N1CCN(C(=O)c2cc3c(=O)n(C)c4ccccc4c3n2C)CC1	–	0% (inactive)	–
Oc1c(CN2CCCCC2)cc(COCc2ccccc2)c2cccnc12	5.42	–	–
CN(C)c1ccc(CNC2CC(C)(C)NC(C)(C)C2)cc1	5.06	–	–
CCCN(CCC)CCNC(=O)C1CCN(Cc2nc(-c3ccc(Cl)cc3)oc2C)CC1	6.11	–	–
Cn1c(=O)cc(SCC(=O)NCCCN2CCN(c3ccccc3F)CC2)c2ccccc21	–	31.1% (inactive)	–
CCN(CCNC(=O)C1CCN(Cc2nc(-c3cccc(Cl)c3)oc2C)CC1)c1ccccc1	–	0% (inactive)	–
CN(C)CCCN1c2ccccc2CCc2ccc(Cl)cc21	–	73% (inactive)	–
CCN(CC)CCNC(=O)c1ccc(N2CCCCC2)c(NS(=O)(=O)c2ccc(C)cc2)c1	–	44.4% (inactive)	–
COc1ccc(-c2cc(C(F)(F)F)nc(N3CCN(Cc4ccccc4)CC3)n2)cc1OC	–	44.4% (inactive)	–
CCn1c(=O)cc(SCC(=O)NCCCN2CCN(c3ccccc3F)CC2)c2ccccc21	5.05	–	–
O=S1(=O)C=C(Sc2nc3ccccc3s2)c2ccccc21	–	0% (inactive)	–
CCOC(=O)c1[nH]c(C)c(C(=O)N2CCc3ccccc32)c1C	–	1.98% (inactive)	–
CCOc1ccc(NC(=O)COc2nsnc2N2CCCCC2)cc1	–	0% (inactive)	–
Cc1cc(N2CCN(C)CC2)nc2ccc(NC(=O)c3ccc4c(c3)OCO4)cc12	–	–	10.4 µM (inactive)

Structure (SMILES)	pEC50 [1]	side scatter activation [2]	EC50 [1]
Cc1ccccc1CS(=O)(=O)CCC(=O)NCCCN1CCN(c2ccccc2F)CC1	–	31.1% (inactive)	–
COc1ccc(N2CCN(CCCNC(=O)c3cc4sccc4n3C)CC2)cc1	–	40.2% (inactive)	–
Cn1c(=O)[nH]c(=O)c2c1nc(Br)n2CCCSc1nc2ccccc2o1	–	1.98% (inactive)	–
CC1CCCCN1CCNC(=O)c1cc2c(-c3ccccc3F)nn(C)c2s1 (stereo not drawn)	–	84.3% (inactive)	–
COc1ccc(N2CCN(CCCNC(=O)CC3Oc4ccc(C)cc4NC3=O)CC2)cc1 (stereo not drawn)	–	–	27 µM (inactive)
CN(CCNC(=O)C1CC(=O)N(c2ccc(F)c(Cl)c2)C1)Cc1ccccc1 (stereo not drawn)	–	44.4% (inactive)	–
CCn1c(=O)cc(SCC(=O)NCCN2CCN(Cc3ccccc3)CC2)c2ccccc21	–	73% (inactive)	–
COc1ccccc1NC(=O)c1nc[nH]c1C(=O)Nc1ccccc1OC	5.02	–	–
CCCOc1ccccc1C1CC(=O)Nc2cc3c(cc21)OCO3 (stereo not drawn)	–	0% (inactive)	–
C[C@H]1CCC/C=C/C2C[C@H](O)CC2[C@H](O)/C=C/C(=O)O1 (stereo partly drawn)	–	0% (inactive)	–
CCc1ccc(-c2nc(CN3CCC(C(=O)NCc4ccc(F)cc4)CC3)c(C)o2)cc1	–	0% (inactive)	–
Nc1ccc(-n2ccnc2)cc1	–	84.3% (inactive)	–
COc1ccc(Cc2nc(-c3ccc(-n4cccc4)cc3)no2)cc1OC	–	1.98% (inactive)	–
CCN(CC)CCNC(=O)c1cc2c(-c3ccc(Cl)cc3)nn(C)c2s1	–	31.1% (inactive)	–
CCOC(=O)c1c(C)n(C)c2ccc(OCC(O)CNC(CC)CO)cc12 (stereo not drawn)	–	38.5% (inactive)	–
COc1ccc(-c2ccc(-c3noc(-c4ccccc4)n3)c(OC)n2)cc1	–	–	10.4 µM (inactive)
Cn1nc(-c2ccc(Cl)cc2)c2cc(C(=O)NCCCN3CCCC3)sc21	–	84.3% (inactive)	–
Clc1ccc(COC(Cn2ccnc2)c2ccc(Cl)cc2Cl)cc1 (stereo not drawn)	–	0% (inactive)	–
CCN1CCN(c2ncc(C(=O)Nc3cc(Cl)c(OC)cc3OC)c3ccccc23)CC1	5.25	–	–
CCCS(=O)(=O)N1CCCC(C(=O)NCCCN2CCN(c3ccc(F)cc3)CC2)C1 (stereo not drawn)	–	1.98% (inactive)	–
CCn1c(=N)n(CC(O)COc2cccc(C)c2)c2ccccc21 (stereo not drawn)	–	0% (inactive)	–
CCOC(=O)c1c(C)[nH]c(C(=O)COC(=O)C2CC2C)c1C (stereo not drawn)	–	73% (inactive)	–
CN1CCN(CCCNC(=O)c2cc3c(-c4ccc(Cl)cc4)nn(C)c3s2)CC1	5.19	–	–
Cn1nc(-c2ccc(Cl)cc2)c2cc(C(=O)NCCCN3CCOCC3)sc21	5.26	–	–

Structure (SMILES)	pEC50 [1]	side scatter activation [2]	EC50 [1]
CN1CCN(c2cc3c(c4c2[nH]c2ccccc24)C(=O)CC(C)(C)C3)CC1	5.44	–	–
COc1ccc(Nc2nc(N)nc(CN3CCC(Cc4ccccc4)CC3)n2)cc1	–	73% (inactive)	–
COc1ccc(-c2oc3ncn(CCN4CCOCC4)c(=N)c3c2-c2ccc(OC)cc2)cc1	–	44.4% (inactive)	–
Cc1ccccc1-c1nc(CN2CCC(C(=O)NCCCN3CC(C)CC(C)C3)CC2)c(C)o1 (stereo not drawn)	–	31.1% (inactive)	–
CCN1CCN(C(c2cccs2)C(C)NS(=O)(=O)c2ccc(Br)cc2)CC1 (stereo not drawn)	–	–	15.2 µM (inactive)
COc1cc2nc(N3CCN(C(=O)C4COc5ccccc5O4)CC3)nc(N)c2cc1OC (stereo not drawn)	5.40	–	–
CCN1CCN(CCNC(=O)C2CCN(Cc3nc(-c4ccc(Cl)cc4)oc3C)CC2)CC1	–	–	16.6 µM (inactive)
O=C(Cn1cc2c(n1)CCCC2)NCCCN1CCN(c2ccccc2F)CC1	–	31.1% (inactive)	–
CC1CCCCN1CCNC(=O)c1ccc2c(=O)n(CCc3ccccc3)c(=O)[nH]c2c1 (stereo not drawn)	5.19	–	–
Cc1cc2c(=O)n(CC(=O)N3CCN(c4ccccc4)CC3)cnc2s1	–	84.3% (inactive)	–
Cc1ccccc1-c1nc(CN2CCCC(C(=O)NCCCN3CCOCC3)C2)c(C)o1 (stereo not drawn)	5.15	–	–
Cc1nc2ncnn2c(C)c1CCC(=O)NCCCN1CCN(c2cccc(Cl)c2)CC1	–	84.3% (inactive)	–
CC(C)(C)c1ccc(C(O)CCCN2CCC(C(O)(c3ccccc3)c3ccccc3)CC2)cc1 (stereo not drawn)	–	0% (inactive)	–
COc1ccc(-c2noc(-c3cc(Cl)ccc3Cl)n2)cc1OC	5.24	–	–
CCN1CCN(c2cc(C)c3cc(NC(=O)c4ccc(Br)o4)ccc3n2)CC1	–	73% (inactive)	–
CCN1CCCC1CNC(=O)c1cc2c(-c3ccc(Cl)cc3)nn(C)c2s1 (stereo not drawn)	–	84.3% (inactive)	–
Cc1noc(/C=C/c2ccco2)c1S(=O)(=O)N1CCC(C(=O)N2CCc3ccccc3C2)CC1	5.28	–	–
Cc1ccc(CNc2nc3ccccc3n3nnnc23)cc1	–	40.2% (inactive)	–
CCN1CCCC1CNC(=O)C1CCN(Cc2nc(-c3cccc(Br)c3)oc2C)CC1 (stereo not drawn)	5.95	–	–
COc1ccc(-c2noc(CCC(=O)NCCCN3CCC(Cc4ccccc4)CC3)n2)cc1	–	1.98% (inactive)	–
Cc1ccc(C)c(N2CCN(CCCNC(=O)Cn3cc4c(n3)CCCCC4)CC2)c1	–	0% (inactive)	–
